pKi: −log10 of the molar value. Read-outs that look alike come from different tables or passages of the source.
Key:
[1] = target: T1, noradrenaline (NA) reuptake sites (Rattus norvegicus, UniProt Q63380); test: NA uptake: displacement of [3H]nisoxetine from noradrenaline reuptake sites, rat frontal cortical membranes; type: binding; conditions: for pKi: [3H]nisoxetine 0.6 nM, rat frontal cortical membranes, fit to data from three experiments; for inhibition at 1 µM: read-out: NA uptake % displacement at 10^−6 M
T1 construct: Frontal cortical tissue from the brains of male Charles River rats; from tissue; host or cells: rat frontal cortical membranes
T1 sequence (Q63380 1-617): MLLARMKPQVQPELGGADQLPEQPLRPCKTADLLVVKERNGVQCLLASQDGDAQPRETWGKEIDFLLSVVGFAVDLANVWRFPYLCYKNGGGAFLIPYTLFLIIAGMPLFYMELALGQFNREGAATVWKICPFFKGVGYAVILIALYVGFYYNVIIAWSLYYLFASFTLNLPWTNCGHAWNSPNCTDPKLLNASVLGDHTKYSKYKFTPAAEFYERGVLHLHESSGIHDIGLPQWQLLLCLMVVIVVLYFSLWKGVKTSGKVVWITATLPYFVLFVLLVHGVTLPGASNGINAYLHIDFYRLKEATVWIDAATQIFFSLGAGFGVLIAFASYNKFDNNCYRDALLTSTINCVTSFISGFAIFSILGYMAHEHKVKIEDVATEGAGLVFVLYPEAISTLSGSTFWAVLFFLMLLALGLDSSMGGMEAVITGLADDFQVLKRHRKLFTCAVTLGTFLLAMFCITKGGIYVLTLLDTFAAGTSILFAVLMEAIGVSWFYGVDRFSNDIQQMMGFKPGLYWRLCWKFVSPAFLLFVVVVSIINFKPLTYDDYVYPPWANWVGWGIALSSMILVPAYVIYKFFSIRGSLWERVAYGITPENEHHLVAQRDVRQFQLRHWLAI
Procedure: (§1) Frontal cortical tissue from the brains of male Charles River rats weighing 150-250 g was homogenised in ice-cold 50 mM Tris-HCl, pH 7.4 (at 25° C.) containing 120 mM sodium chloride and 5 mM potassium chloride (Tris buffer; 1:60 w/v) using a Kinematic polytron (speed setting 6 for 10 seconds) and centrifuged at 40,000 g for 10 minutes. The supernatant was discarded and the pellet rehomogenised in Tris buffer, 1:60 w/v, and centrifuged at 40,000 g for 10 minutes. This step was repeated twice more so that, in total, the brain tissue was homogenised and centrifuged four times. The final pellet was resuspended in 50 mM Tris-HCl, pH 7.4 containing 300 mM sodium chloride and 5 mM potassium chloride (equivalent to 18.75 mg wet weight of tissue/ml) and used immediately in the binding assay. All centrifugations were performed at 4° C.
Membranes (400 μl; equivalent to 7.5 mg wet weight of tissue/tube) were incubated with 50 μl [^3H]nisoxetine at a single concentration of 0.6 nM and 50 μl of distilled water (total binding) or 50 μl^− of test compound (at a single concentration 10^−6M or at 10 concentrations ranging from 10^−11-10^−3 M) or 50 μl of mazindol (1 μM; non-specific binding) for 4 h at 4° C. Membrane bound radioactivity was recovered by filtration under vacuum through Skatron 11734 filters using a Skatron cell harvester. Filters were rapidly washed with ice-cold 50 mM Tris-HCl, pH 7.4 containing 120 mM sodium chloride and 5 mM potassium chloride (wash setting 9,9,0). The scored filter paper discs were punched out into vials, scintillation fluid added and radioactivity determined by liquid scintillation counting.
(§2) For each of these tests measuring the ability of compounds of Formula I to displace standard ligands from 5-HT1A receptors and 5-hydroxytryptamine (5-HT) and noradrenaline (NA) reuptake sites and muscarinic receptors in vitro, the percentage displacement of specific binding of tritiated ligand by 10^−6 M test compound was calculated in the following way.
(§3) Firstly, specific binding of tritiated ligand in the absence (A) and presence (B) of test compound was determined:
(§4) In the absence of compound: A(dpm)=Total binding (dpm)−Non-specific binding (dpm) In the presence of compound (10^−6 M): B(dpm)=Binding at 10^−6M (dpm)−Non-specific binding (dpm)
(§5) The specific binding of tritiated ligand in the presence (B) of compound was then converted to a percentage of specific binding of tritiated ligand in the absence (A) of compound: % Specific binding at 10^−6 M=B(dpm)/A(dpm)×100
(§6) The percentage displacement of specific binding of tritiated ligand by the test compound (10^−6 M) was then obtained by subtraction of the percentage specific binding in the presence of compound from the percentage specific binding in the absence of compound, which is taken as the maximum binding and so equals 100%:
(§7) % Displacement at 10^−6 M=100−% Specific binding at 10^−6 M.
In some cases, displacement curves were then produced for compounds which displaced ≧50% of specific binding of the tritiated ligand at 10^−6 M using a range of concentrations of the compound. The Ki was then calculated by simultaneous fitting using equations derived from the Feldman equations by robust non-linear regression to data from three experiments simultaneously (De Lean et al., 1978; Munson and Rodbard, 1980; Feldman, 1992). Munson P J and Rodbard D. Ligand: a versatile computerised approach for characterisation of ligand binding systems. Anal Biochem 1980; 107: 220. Feldman HA. Mathematical theory of complex ligand binding systems at equilibrium: some methods for parameter fitting. Anal Biochem 1992: 48, 317. De Lean A, Munson P J and Rodbard D. Simultaneous analysis of families of sigmoidal curves: application to bioassay, radioligand assay, and physiological dose-response curves. Am J Physiol 1978: 235 (2), E97-E102. […]

5-HT reuptake sites = target: T2, 5-HT reuptake sites (Rattus norvegicus, UniProt P31652); test: 5-HT uptake: displacement of [3H]citalopram from 5-HT reuptake sites, rat frontal cortical membranes; type: binding; conditions: for pKi: [3H]citalopram 1.3 nM, rat frontal cortical membranes, fit to data from three experiments; for inhibition at 1 µM: 10^−6 M test compound, single determination, [3H]citalopram
T2 construct: Frontal cortical tissue from the brains of male Charles River rats; from tissue; host or cells: rat frontal cortical membranes
T2 sequence (P31652 whole entry): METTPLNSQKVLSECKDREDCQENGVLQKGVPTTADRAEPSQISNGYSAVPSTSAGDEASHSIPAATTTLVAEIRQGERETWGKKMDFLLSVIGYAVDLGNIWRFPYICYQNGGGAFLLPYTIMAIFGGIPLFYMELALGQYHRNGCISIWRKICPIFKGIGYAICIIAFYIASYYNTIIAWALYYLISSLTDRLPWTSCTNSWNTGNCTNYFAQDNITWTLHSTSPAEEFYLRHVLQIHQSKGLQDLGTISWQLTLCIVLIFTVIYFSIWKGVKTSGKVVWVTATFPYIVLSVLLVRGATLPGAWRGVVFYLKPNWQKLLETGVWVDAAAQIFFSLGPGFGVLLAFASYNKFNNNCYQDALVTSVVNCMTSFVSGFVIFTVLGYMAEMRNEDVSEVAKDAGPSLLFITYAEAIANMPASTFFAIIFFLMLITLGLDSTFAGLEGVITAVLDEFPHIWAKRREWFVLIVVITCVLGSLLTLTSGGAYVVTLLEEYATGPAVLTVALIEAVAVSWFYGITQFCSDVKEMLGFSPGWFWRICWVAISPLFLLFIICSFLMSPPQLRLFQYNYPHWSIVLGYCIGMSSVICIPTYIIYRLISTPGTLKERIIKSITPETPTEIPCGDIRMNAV
Procedure: as §1, with “7.4 (when measured at” for “7.4 (at”, “buffer; 1:30” for “buffer; 1:60”, “w/v)” for “w/v) using a Kinematic polytron (speed setting 6 for 10 seconds)”, “repeated a further time.” for “repeated twice more so that, in total, the brain tissue was homogenised and centrifuged four times.”, “containing 120” for “containing 300”, “to 3.125” for “to 18.75”
Membranes (400 μl; equivalent to 1.25 mg wet weight of tissue/tube) were incubated with 50 μl [^3H]citalopram at a single concentration of 1.3 nM and 50 μl of distilled water (total binding) or 50 μl of test compound (at a single concentration of 10^−6 M or at 10 concentrations ranging from 10^−11-10^−3 M) or 50 μl of paroxetine (0.5 μM; non-specific binding) for 1 h at 27° C. Membrane bound radioactivity was recovered by filtration under vacuum through Skatron 11734 filters presoaked in 0.5% PEI using a Skatron Cell Harvester. Filters were then washed in ice-cold 50 mM Tris-HCl buffer, pH 7.4 (at 25° C., wash setting 9,9,0). The scored filter paper discs were punched out into vials, scintillation fluid added and radioactivity determined by liquid scintillation counting.
as §2, §3, §4, §5, §6, §7
In some cases, displacement curves were then produced for compounds which displaced ≧50% of specific binding of the tritiated ligand at 10^−6 M using a range of concentrations of the compound. The Ki was then calculated by simultaneous fitting using equations derived from the Feldman equations by robust non-linear regression to data from three experiments simultaneously (De Lean et al., 1978; Munson and Rodbard, 1980; Feldman, 1992). Munson P J and Rodbard D. Ligand: a versatile computerised approach for characterisation of ligand binding systems. Anal Biochem 1980; 107: 220. Feldman HA. Mathematical theory of complex ligand binding systems at equilibrium: some methods for parameter fitting. Anal Biochem 1992: 48, 317. De Lean A, Munson P J and Rodbard D. Simultaneous analysis of families of sigmoidal curves: application to bioassay, radioligand assay, and physiological dose-response curves. Am J Physiol 1978: 235 (2), E97-E102.
The results obtained in the above tests for 5-HT1A binding and 5-HT and NA uptake and muscarinic binding for the final products of Examples 1-39 hereinafter are given in Table 1 below. Kis are in nM. % Figures are for % displacement at 10^−6 M for a single determination.

| pKi [1] | pKi (5-HT reuptake sites) | inhibition at 1 µM ([1]; 10^−6 M test compound, single determination, [3H]nisoxetine) [%] | Compound | inhibition at 1 µM [1] [%] | inhibition at 1 µM (5-HT reuptake sites) [%] |
| --- | --- | --- | --- | --- | --- |
| 8.40 | 6.64 | – | CC1=C(c2cccc3ccsc23)N2CCN=C2S1.Cl [Example 23, 3-(benzo[b]thiophen-7-yl)-2-methyl-5,6-dihydroimidazo[2,1-b]thiazole hydrochloride] | – | – |
| – | – | – | Br.CC1=C(c2cc3c(Cl)c(Cl)ccc3s2)N2CCN=C2S1 [Example 24, 3-(4,5-dichlorobenzo[b]thiophen-2-yl)-2-methyl-5,6-dihydroimidazo[2,1-b]-thiazole hydrobromide] | 39 | 97 |
| – | – | – | Br.COc1cccc2cc(C3=C(C)SC4=NCCN43)sc12 [Example 26, 3-(7-methoxybenzo[b]thiophen-2-yl)-2-methyl-5,6-dihydroimidazo[2,1-b]thiazole hydrobromide] | -3 | 64 |
| – | – | – | Br.CC1(c2cc3cc(F)ccc3s2)CSC2=NCCN21 (stereo not shown) [Example 27, 3-(5-fluorobenzo[b]thiophen-2-yl)-3-methyl-5,6-dihydroimidazo[2,1-b]thiazole hydrobromide] | 72 | 85 |
| 8.27 | 6.83 | – | OCC1=C(c2ccc3sccc3c2)N2CCN=C2S1 [Example 28, [3-(benzo[b]thiophen-5-yl)-5,6-dihydroimidazo[2,1-b]-thiazol-2-yl]methanol] | – | – |
| 8.43 | 8.39 | – | CC(C)C1=C(c2ccc3sccc3c2)N2CCN=C2S1 [Example 29, 3-(benzo[b]thiophen-5-yl)-2-(1-methylethyl)-5,6-dihydroimidazo[2,1-b]-thiazole] | – | – |
| – | – | 101 | CSC1=C(c2ccc3sccc3c2)N2CCN=C2S1 [Example 30, 3-(benzo[b]thiophen-5-yl)-2-(methylthio)-5,6-dihydroimidazo[2,1-b]thiazole] | – | 95 |
| – | – | – | CC1=C(c2cccc3sc(C)cc23)N2CCN=C2S1.Cl [Example 33, 2-methyl-3-(2-methylbenzo[b]thiophen-4-yl)-5,6-dihydroimidazo[2,1-b]thiazole hydrochloride] | 84 | 62 |
| 8.70 | 7.28 | – | Br.c1cc(C2=C(C3CC3)SC3=NCCN32)c2ccsc2c1 [Example 34, 3-(benzo[b]thiophen-4-yl)-2-cyclopropyl-5,6-dihydroimidazo[2,1-b]thiazole hydrobromide] | – | – |
| 8.77 | 7.05 | – | Br.C=CCC1=C(c2cccc3sccc23)N2CCN=C2S1 [Example 36, 2-allyl-3-(benzo[b]thiophen-4-yl)-5,6-dihydroimidazo[2,1-b]thiazole hydrobromide] | – | – |
| 8.13 | 6.67 | – | Br.CC1=C(c2ccc3ccsc3c2)N2CCN=C2S1 [Example 37, 3-(benzo[b]thiophen-6-yl)-2-methyl-5,6-dihydroimidazo[2,1-b]thiazole hydrobromide] | – | – |
| 8.92 | 7.21 | – | Br.CC1=C(c2ccc(F)c3sccc23)N2CCN=C2S1 [Example 38, 3-(7-fluorobenzo[b]thiophen-4-yl)-2-methyl-5,6-dihydroimidazo[2,1-b]thiazole hydrobromide] | – | – |
| – | – | – | C=CC1=C(c2cccc3sccc23)N2CCN=C2S1.Cl [Example 39, 3-(benzo[b]thiophen-4-yl)-2-vinyl-5,6-dihydroimidazo[2,1-b]thiazole hydrochloride] | 100 | 70 |

| Compound | pKi [1] | pKi (5-HT reuptake sites) | inhibition at 1 µM ([1]; 10^−6 M test compound, single determination, [3H]nisoxetine) [%] | inhibition at 1 µM [1] [%] | inhibition at 1 µM (5-HT reuptake sites) [%] |
| --- | --- | --- | --- | --- | --- |
| CCC1=C(c2cccc3sccc23)N2CCN=C2S1.O=C(O)/C=C/C(=O)O [Example 25, 3-(benzo[b]thiophen-4-yl)-2-ethyl-5,6-dihydroimidazo[2,1-b]thiazole fumarate] | 8.27 | 6.77 | – | – | – |
| CCC1=C(c2ccc3sccc3c2)N2CCN=C2S1.O=C(O)/C=C/C(=O)O [Example 31, 3-(benzo[b]thiophen-5-yl)-2-ethyl-5,6-dihydroimidazo[2,1-b]thiazole fumarate] | 8.37 | 7.46 | – | – | – |
| CSC1=C(c2cccc3sccc23)N2CCN=C2S1.O=C(O)/C=C/C(=O)O [Example 32, 3-(benzo[b]thiophen-4-yl)-2-(methylthio)-5,6-dihydroimidazo[2,1-b]thiazole fumarate] | 8.46 | 6.65 | – | – | – |
| CC(C)C1=C(c2cccc3sccc23)N2CCN=C2S1.O=C(O)/C=C/C(=O)O [Example 35, 3-(benzo[b]thiophen-4-yl)-2-(1-methylethyl)-5,6-dihydroimidazo[2,1-b]thiazole fumarate] | 8.26 | 7.08 | – | – | – |
